{"source": "patent US9187526B2", "about": "“Peptide based inhibition of caPCNA interaction in cancer” (priority 2006, dated 2015)", "key": {"breast cancer cells": {"system": "breast cancer cells", "test": "Flow-cytometric analysis of breast cancer cells treated with peptide-containing liposomes (propidium iodide / annexin V)", "assay_type": "cell-based", "method": "Exponentially growing breast cancer cells were grown in culture media to 50% of confluence (FIG. 1). The media was then changed and liposomes that were prepared from transfection reagent (PJR) were incubated with the cells in fresh media for an additional 24 hours prior to performing flow-cytometric analysis of the treated cells.\nLiposomes contained either the carboxyl region of the p21waf1 protein, and/or the caPCNA antigenic site peptide (LGIPEQEY) (SEQ ID NO: 1). After 24 hours, the cells were stained with propidium iodide and fluorescently labeled annexin V antibody. Healthy growing cells were not permeable to the antibody as shown in lower left panel of FIG. 1, while permeabilized healthy cells susceptible to the transfection reagent, but still growing, were stained with propidium iodide. Cells staining with the annexin V antibody indicate some level of damage associated with the induction of apoptotic cells (lower right quadrant, FIG. 1), and/or cells that had died from either apoptosis or necrosis (upper right quadrant, FIG. 1). […] Cells treated with only the transfection reagent slightly affected the condition of the cells and lead to a slight increase in the number of apoptotic and necrotic cells. […] In addition, approximately 5-7% of the remaining cells appeared to be undergoing apoptosis and was slated to die."}, "[1]": {"system": "caPCNA binding to caPCNA antibody (caPCNAab)", "test": "Competition ELISA: caPCNA captured by plate-bound caPCNA antibody (caPCNAab), detected with C20 antibody", "set-up": "species or system human", "settings": "increasing amounts of peptide incubated simultaneously with purified caPCNA", "method": "The wells are washed and then incubated with a goat anti-PCNA antibody (C20) that recognizes the C-terminal 20 amino acids of PCNA. Bound C20 antibody is visualized with an alkaline phosphatase conjugated anti-goat IgG antibody, and bound antibody complex is visualized with […], and quantified by spectrophotometry. The competition experiments shown in this study involve the simultaneous incubation of the ca(cs)PCNA with increasing amounts of the antigenic peptide fragment of caPCNA (referred to as B1 or the PCNA aa126-133 peptide) in this assay.\nThe assay described in FIG. 5 was used to test the specificity of the antibody combining site for the epitope defined by PCNA aa126-133 (FIG. 6). The ELISA assay was performed as described in aim 1, however, either the B1 peptide or a peptide sequence (H-Ser-Ala-Cys-Glu-Gln-IIe-Leu-Lys-Asp-Thr-OH) (SEQ ID NO: 28) taken from within the yeast myosin protein was used to compete for the antibody in the presence of purified caPCNA.\nThe ELISA described herein was used to monitor the ability of two peptides to disrupt caPCNA binding to the bound caPCNA antibody. One peptide (H-[…]OH) (SEQ ID NO: 29) corresponding to the p21cip/waf1 proteins site of interaction with PCNA was evaluated in this assay, and is shown to have no effect on the binding of caPCNA to the bound caPCNA antibody in this ELISA assay (FIG. 7). […] Therefore, the XPG peptide interacts with its recognized PCNA binding site in order to block binding of the PCNA protein to the caPCNA antibody. This happens if the epitope recognized by the antibody was masked by specifically binding this XPG peptide."}, "U937 leukemia cells": {"system": "U937 leukemia cells", "test": "Cytotoxicity in U937 leukemia cell cultures, liposome-mediated peptide transfer, flow cytometry with propidium iodide and annexin V", "assay_type": "cell-based", "source_text": "Peptide fragments derived from the protein Proliferating Cell Nuclear Antigen (PCNA) are identified herein that have the ability to act, in conjunction with DNA damaging agents (e.g., doxorubicin), to enhance the therapeutic effects of such agents to treat a variety of cancer cells. The peptides are derived from the amino acid sequence within PCNA, for example, encompassing amino acids 126-133. This sequence appears to be uniquely exposed in cancer cells, but not non-cancer cells. By preventing PCNA-binding proteins, including XPG, from binding directly to caPCNA in cancer cells the effects of chemotherapeutic drugs including DNA damaging agents are enhanced. […] Exponentially growing U937 leukemia cell cultures in tissue culture media were used. A liposome mediated protein transfer technique was used wherein the caPCNA peptide (126-133) and doxorubicin were encapsulated in liposomes and added to the cell cultures at 10 μM. […] This approach produced over a 50% killing of the cultured cells within 24 hours that was peptide/drug specific, and not due to liposome mediated cytotoxicity.\nAs a positive control, these leukemia cells were also incubated for several hours (either 4 or 24 hours) with a peptide derived from the p21waf protein, and as a negative control, a peptide derived from the yeast myosin protein. […] Cell killing vs. cell damage was assessed by flow cytometry using propidium iodide and annexin V staining."}, "cancer cells": {"system": "cancer cells", "test": "Incubation of RYIRS-tagged caPCNA-derived peptide with cancer cells in vitro (DMSO or liposome uptake)", "assay_type": "cell-based", "settings": "with doxorubicin", "method": "The peptides disclosed herein are synthesized using standard peptide synthesis procedures and equipments or can be obtained commercially (e.g., United Biochemical Research Co., Seattle, Wash.). […] Uptake of this peptide was initiated by incubation of this peptide with the cancer cells in the presence of dimethyl sulfoxide (DMSO) in either phosphate buffered saline (PBS) or culture media containing 0.2-2% DMSO, without serum for about 4-24 hours. Uptake of this peptide was also efficiently mediated by encapsulation of the peptide in a liposome formulation and subsequent incubation with the cancer cells at 37° C. for about 4-24 hours."}, "caPCNA": {"molecular_target": "T1, caPCNA (Homo sapiens, UniProt P12004)", "T1 construct": "precipitate caPCNA selectively from the MCF7 breast cancer cell extract; endogenous in cells; host or cells: MCF7 cell extract (XPG-GST partner expressed in bacteria)", "T1 sequence (P12004 whole entry, the tested form may be a part, canonical isoform)": "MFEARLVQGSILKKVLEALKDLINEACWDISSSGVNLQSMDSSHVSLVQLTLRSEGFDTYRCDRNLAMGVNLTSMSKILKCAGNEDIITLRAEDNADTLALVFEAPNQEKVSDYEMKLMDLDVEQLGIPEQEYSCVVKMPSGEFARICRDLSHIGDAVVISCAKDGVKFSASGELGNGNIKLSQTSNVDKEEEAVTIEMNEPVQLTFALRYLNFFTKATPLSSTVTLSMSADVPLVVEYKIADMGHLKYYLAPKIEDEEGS", "test": "XPG-GST fusion protein immunoprecipitation of PCNA isoforms from MCF7 cell extract, 2D-PAGE Western blot", "assay_type": "binding", "settings": "30 μg MCF7 cell extract, 2 h incubation, glutathione agarose beads", "source_text": "MCF7 cell (human breast adenocarcinoma cell line) extracts were processed for purification of the synthesome. MCF7 derived synthesome was then subjected to chromatography steps on phosphocellulose, phenyl Sepharose, and Q-Sepharose matrices as described in (Malkas, L. and Hickey, R. (1996) The expression, purification and characterization of DNA polymerases involved in papovavirus replication. In: Methods in Enzymol Vol. 275: Viral Polymerases and Related Proteins, Acad. Press (133-167).). The Q-Sepharose eluted fraction containing both the nmPCNA and caPCNA isoforms was then loaded onto a XPG-GST affinity column. The column was eluted and both the column flow-through and eluate were subjected to 2D-PAGE Western blot analysis using PC10 antibody. The PC10 antibody was used at a dilution of 1:1000 in the Western blot analysis.\ncaPCNA was specifically immunoprecipitated from a MCF7 cell extract using XPG-GST fusion protein (FIG. 3). Thirty microgram samples of MCF7 cell extract were incubated with XPG-GST fusion protein for two hours, followed by incubation with Glutathione agarose beads for one hour to capture the XPG-GST. The mixture was then centrifuged to collect the beads, and the supernatant and the agarose bead pellet containing the XPG-GST PCNA complex were subjected to 2D-PAGE Western blot analysis. The Western blots were then probed using commercially available PC10 antibody."}}, "note": "Where two headings read alike, the source gives them in different places. Where no end group is shown, it is not given here."}
{"compound": "COc1cccc2c1C(=O)c1c(O)c3c(c(O)c1C2=O)C[C@@](O)(C(=O)CO)C[C@@H]3O[C@H]1C[C@H](N)[C@H](O)[C@H](C)O1", "note": "[doxorubicin]", "values": [{"measurement": "cell killing", "setting": "breast cancer cells; breast cancer cells, low doses of doxorubicin alone", "result": "significant level of cell killing"}]}
{"compound": "H-Gln-Thr-Gln-Leu-Arg-Ile-Asp-Ser-Phe-Phe-Arg-OH (H-QTQLRIDSFFR-OH) [XPG peptide]", "values": [{"measurement": "competition with caPCNA for binding to the caPCNA antibody", "setting": "[1]", "result": "effectively competed"}]}
{"compound": "H-Gly-Arg-Lys-Arg-Arg-Gln-Thr-Ser-Met-Thr-Asp-Arg-Tyr-His-Ser-Lys-Arg-Arg-Leu-Ile-Phe-Ser-OH (H-GRKRRQTSMTDRYHSKRRLIFS-OH) [p21cip/waf1 peptide (SEQ ID NO: 29)]", "values": [{"measurement": "competition with caPCNA for binding to the caPCNA antibody", "setting": "[1]", "result": "no effect"}]}
{"compound": "H-Ser-Ala-Cys-Glu-Gln-IIe-Leu-Lys-Asp-Thr-OH (H-SACEQILKDT-OH) [MAL4]", "values": [{"measurement": "competition with caPCNA for binding to the caPCNA antibody", "setting": "[1]", "result": "does not compete"}]}
{"compound": "LGIPEQEY [caPCNA peptide (126-133), LGIPEQEY]", "values": [{"measurement": "cytotoxic response (cell killing)", "setting": "breast cancer cells; breast cancer cells, peptide alone in liposomes, 24 hours", "result": "strong cytotoxic response"}, {"measurement": "intrinsic cytotoxicity", "setting": "U937 leukemia cells; U937 cells, peptide as single agent, liposome encapsulated, 10 μM", "result": "intrinsic cytotoxicity"}, {"measurement": "increase of the cytotoxicity of doxorubicin", "setting": "U937 leukemia cells; U937 cells, peptide plus a range of concentrations of doxorubicin", "result": "approximately 3 fold"}]}
{"compound": "LGIPEQEYRYIRS [caPCNA-derived peptide (LGIPEQEY)(RYIRS)]", "values": [{"measurement": "augmentation of cytotoxic effects of chemotherapeutic agents", "setting": "cancer cells", "result": "augments the cytotoxic effects"}]}
{"compound": "XPG-GST fusion protein: 29 amino acid fragment of the XPG protein coupled to Glutathione-S-transferase, expressed in bacteria (LKQLDAQQTQLRIDSFFRLAQQEKEDAKR; also: fused to glutathione-S-transferase)", "values": [{"measurement": "selective binding/precipitation of caPCNA versus nmPCNA", "setting": "caPCNA", "result": "recognize and precipitate caPCNA selectively"}]}
{"compound": "p21 peptide: peptide derived from the p21waf protein (carboxyl region of p21waf1), positive control (GRKRRQTSMTDRYHSKRRLIFS) [reference compound]", "values": [{"measurement": "cytotoxic response (cell killing)", "setting": "breast cancer cells", "result": "induced cell killing"}, {"measurement": "cell kill", "setting": "U937 leukemia cells; U937 leukemia cells, absence of doxorubicin, incubation 4 or 24 hours", "result": "> 60", "unit": "%"}]}
